Numbers after ± are expanded uncertainties.
Legend:
[1] = mn = molality of the nth substance listed, in mol/kg; conditions: 100 kPa, Liquid; for speed of sound: Frequency=3 MHz, Sing-around technique in a fixed-path interferometer; for mass density: Vibrating tube method
[2] = 100 kPa, Liquid; for speed of sound: Frequency=3 MHz, Sing-around technique in a fixed-path interferometer; for mass density: Vibrating tube method

CC1(C)S[C@@H]2[C@H](NC(=O)[C@H](N)c3ccc(O)cc3)C(=O)N2[C@H]1C(=O)O [amoxicillin] + O
[1]
Conditions	mass density, 305.15 K [kg/m3]	mass density, 310.15 K [kg/m3]	mass density, 315.15 K [kg/m3]	speed of sound, 305.15 K [m/s]	speed of sound, 310.15 K [m/s]	speed of sound, 315.15 K [m/s]
m1 = 0.0005	995.743 ± 0.6	994.045 ± 0.6	992.153 ± 0.6	1514.7 ± 1.3	1524.6 ± 1.3	1532.9 ± 1.3
m1 = 0.002	995.924 ± 0.6	994.23 ± 0.6	992.334 ± 0.6	1515 ± 1.3	1524.8 ± 1.3	1533.2 ± 1.3
m1 = 0.0035	996.115 ± 0.6	994.412 ± 0.6	992.522 ± 0.6	1514.4 ± 1.3	1524.3 ± 1.3	1532.5 ± 1.3

CC(C)C[C@H](NC(=O)CN)C(=O)O [glycyl-L-leucine] + O
[1]
Conditions	mass density, 305.15 K [kg/m3]	mass density, 310.15 K [kg/m3]	mass density, 315.15 K [kg/m3]	speed of sound, 305.15 K [m/s]	speed of sound, 310.15 K [m/s]	speed of sound, 315.15 K [m/s]
m1 = 0.00196	995.189 ± 0.63	993.501 ± 0.63	991.607 ± 0.63	1514 ± 1.5	1523.9 ± 1.5	1532.4 ± 1.5
m1 = 0.00595	995.39 ± 0.63	993.701 ± 0.63	991.806 ± 0.63	1514.8 ± 1.5	1524.6 ± 1.5	1533 ± 1.5
m1 = 0.00811	995.498 ± 0.63	993.809 ± 0.63	991.913 ± 0.63	1515 ± 1.5	1524.9 ± 1.5	1533.1 ± 1.5
m1 = 0.01008	995.597 ± 0.63	993.908 ± 0.63	992.01 ± 0.63	1515.2 ± 1.5	1525.2 ± 1.5	1533.3 ± 1.5
m1 = 0.02014	996.102 ± 0.63	994.41 ± 0.63	992.508 ± 0.63	1516.4 ± 1.5	1526.2 ± 1.5	1534.5 ± 1.5
m1 = 0.05085	997.635 ± 0.63	995.935 ± 0.63	994.019 ± 0.63	1521.5 ± 1.5	1531.4 ± 1.5	1539.2 ± 1.5
m1 = 0.1002	1000.07 ± 0.63	998.358 ± 0.63	996.42 ± 0.63	1528.8 ± 1.5	1538.2 ± 1.5	1545.9 ± 1.5
m1 = 0.1991	1004.86 ± 0.63	1003.12 ± 0.63	1001.14 ± 0.62	1540.2 ± 1.5	1548.9 ± 1.5	1555.8 ± 1.5
m1 = 0.299	1009.55 ± 0.63	1007.79 ± 0.63	1005.77 ± 0.63	1552 ± 1.5	1560 ± 1.5	1566.6 ± 1.5

O [water]
[2]
Conditions	mass density [kg/m3]	speed of sound [m/s]
305.15 K	995.09 ± 0.11	1513.5 ± 1.3
310.15 K	993.403 ± 0.11	1523.5 ± 1.3
315.15 K	991.51 ± 0.11	1532.2 ± 1.3

From the NIST ThermoML archive (doi:10.1016/j.tca.2014.07.025)
